Series [1] relates to HCT116 colorectal cancer cells. The series can be described thus: Single Agent HCT116 Activity, 96 h cell viability (MTS) assay. Type of series: cell-based. The settings on record: Homo sapiens, HCT-116, read-out: Single agent HT116 IC50. How it is done:
Compounds can be screened for single agent activity against HCT116 colorectal cancer cells using a 96 h cell viability (MTS) assay. HCT116 are plated at 470 cells per well in 96-well polystyrene plates (Costar 3596) in 150 μl of McCoy's 5A media (Sigma M8403) supplemented with 10% foetal bovine serum (JRH Biosciences 12003), Penicillin/Streptomycin solution diluted 1:100 (Sigma P7539), and 2 mM L-glumtamine (Sigma G7513), and allowed to adhere overnight at 37° C. in 5% CO2. Compounds are then added to the cell media in 2-fold serial dilutions from a top final concentration of 10 μM as a full matrix of concentrations in a final cell volume of 200 μl, and the cells are then incubated at 37° C. in 5% CO2. After 96 h, 40 μl of MTS reagent (Promega G358a) is added to each well and the cells are incubated for 1 h at 37° C. in 5% CO2. Finally, absorbance is measured at 490 nm using a SpectraMax Plus 384 reader (Molecular Devices) and IC50 values can be calculated (see Table 2 below for data).

A short description of series [2]: Pharmacokinetics following intravenous dosing. The settings on record: in vivo. How it is done: Noncompartmental pharmacokinetic parameters were analyzed using Watson Bioanalytical LIMS (Version 7.4; Thermo Fisher Scientific) from either the blood or plasma samples. The following parameters were estimated following intravenous (IV) dosing; terminal elimination half-life (T1/2=ln(2)/λz, where λz is the first order rate constant associated with the terminal (log-linear) portion of the curve.
The area under the curve (AUClast=area under the curve from the time of dosing to the last measurable concentration). The area under the curve extrapolated to infinity (AUC0-∞=AUClast+Clast/λz). The clearance (Cl; Cl=DoseIV/AUC0-∞). The area under the first moment curve (AUMClast=area under the concentration times time versus time curve from the time of dosing to the last measurable concentration). The area under the first moment curve extrapolated to infinity (AUMC0-∞=AUMClast+Clast×t/λz+Clast/λz^2). The mean residence time (MRT=AUMC0-∞/AUC0-∞) and the steady state volume of distribution (Vdss=MRT×Cl) (see Table 2 below for data).
Clearance and volume of distribution can also be obtained using methods known to one of skill in the art (see e.g., Handbook of Essential Pharmacokinetics, Pharmacodynamics and Drug Metabolism for Industrial Scientists, Younggil Kwon, pp 18-28 (Non-compartmental Approach)).

The target in a further series is T1, intracellular ATR (Homo sapiens, UniProt Q13535).
T1 construct: endogenous in cells; host or cells: HT29
The series can be described thus: Cellular ATR Inhibition Assay (phosphorylated H2AX immunofluorescence in hydroxyurea treated HT29 cells). The format is cell-based. The following applies: 2 mM hydroxyurea, phosphorylated H2AX Ser139. How it is done: Compounds can be screened for their ability to inhibit intracellular ATR using an immunofluorescence microscopy assay to detect phosphorylation of the ATR substrate histone H2AX in hydroxyurea treated cells. HT29 cells are plated at 14,000 cells per well in 96-well black imaging plates (BD 353219) in McCoy's 5A media (Sigma M8403) supplemented with 10% foetal bovine serum (JRH Biosciences 12003), Penicillin/Streptomycin solution diluted 1:100 (Sigma P7539), and 2 mM L-glumtamine (Sigma G7513), and allowed to adhere overnight at 37° C. in 5% CO2. Compounds are then added to the cell media from a final concentration of 25 μM in 3-fold serial dilutions and the cells are incubated at 37° C. in 5% CO2. […]
Cells are imaged for Alexa Fluor 488 and Hoechst intensity using the BD Pathway 855 Bioimager and Attovision software (BD Biosciences, Version 1.6/855) to quantify phosphorylated H2AX Ser139 and DNA staining, respectively. The percentage of phosphorylated H2AX-positive nuclei in a montage of 9 images at 20× magnification is then calculated for each well using BD Image Data Explorer software (BD Biosciences Version 2.2.15). […] The percentage of H2AX positive nuclei is finally plotted against concentration for each compound and IC50s for intracellular ATR inhibition are determined using Prism software (GraphPad Prism version 3.0cx for Macintosh, GraphPad Software, San Diego Calif., USA).

Series [3] has as its system HCT116 colorectal cancer cells. The series can be described thus: Cisplatin Sensitization Assay, 96 h cell viability (MTS). The settings on record: concentration of compound required to reduce the IC50 of Cisplatin alone by at least 3-fold; HCT116, 96 h. Type of series: cell-based. The procedure:
Compounds can be screened for their ability to sensitize HCT116 colorectal cancer cells to Cisplatin using a 96 h cell viability (MTS) assay. […] Compounds and Cisplatin are then both added simultaneously to the cell media in 2-fold serial dilutions from a top final concentration of 10 μM as a full matrix of concentrations in a final cell volume of 200 μl, and the cells are then incubated at 37° C. in 5% CO2. After 96 h, 40 μl of MTS reagent (Promega G358a) is added to each well and the cells are incubated for 1 h at 37° C. in 5% CO2. Finally, absorbance is measured at 490 nm using a SpectraMax Plus 384 reader (Molecular Devices) and the concentration of compound required to reduce the IC50 of Cisplatin alone by at least 3-fold (to 1 decimal place) can be reported.

Another series deals with T2, full-length ATR (Homo sapiens, UniProt Q13535).
T2 construct: Assays were carried out at 25° C. in the presence of 5 nM full-length ATR
The series can be described thus: ATR Inhibition Assay (radioactive-phosphate incorporation). Type of series: biochemical. The settings on record: Ki(app); 10 μM ATP, 5 nM full-length ATR, 25° C. How it is done: Compounds were screened for their ability to inhibit ATR kinase using a radioactive-phosphate incorporation assay. Assays were carried out in a mixture of 50 mM Tris/HCl (pH 7.5), 10 mM MgCl2 and 1 mM DTT. Final substrate concentrations were 10 μM [γ-33P]ATP (3 mCi 33P ATP/mmol ATP, Perkin Elmer) and 800 μM target peptide (ASELPASQPQPFSAKKK (SEQ ID NO: 1)).
Assays were carried out at 25° C. in the presence of 5 nM full-length ATR. An assay stock buffer solution was prepared containing all of the reagents listed above, with the exception of ATP and the test compound of interest. 13.5 μL of the stock solution was placed in a 96 well plate followed by addition of 2 μL of DMSO stock containing serial dilutions of the test compound (typically starting from a final concentration of 15 μM with 3-fold serial dilutions) in duplicate (final DMSO concentration 7%). The plate was pre-incubated for 10 minutes at 25° C. and the reaction initiated by addition of 15 μL [γ-33P]ATP (final concentration 10 μM).
The reaction was stopped after […] by the addition of 30 μL 0.1M phosphoric acid containing 2 mM ATP. […]
After removing mean background values for all of the data points, Ki(app) data were calculated from non-linear regression analysis of the initial rate data using the Prism software package (GraphPad Prism version 3.0cx for Macintosh, GraphPad Software, San Diego Calif., USA). […]

Each structure is given as a SMILES string.

T2 sequence (Q13535 whole entry): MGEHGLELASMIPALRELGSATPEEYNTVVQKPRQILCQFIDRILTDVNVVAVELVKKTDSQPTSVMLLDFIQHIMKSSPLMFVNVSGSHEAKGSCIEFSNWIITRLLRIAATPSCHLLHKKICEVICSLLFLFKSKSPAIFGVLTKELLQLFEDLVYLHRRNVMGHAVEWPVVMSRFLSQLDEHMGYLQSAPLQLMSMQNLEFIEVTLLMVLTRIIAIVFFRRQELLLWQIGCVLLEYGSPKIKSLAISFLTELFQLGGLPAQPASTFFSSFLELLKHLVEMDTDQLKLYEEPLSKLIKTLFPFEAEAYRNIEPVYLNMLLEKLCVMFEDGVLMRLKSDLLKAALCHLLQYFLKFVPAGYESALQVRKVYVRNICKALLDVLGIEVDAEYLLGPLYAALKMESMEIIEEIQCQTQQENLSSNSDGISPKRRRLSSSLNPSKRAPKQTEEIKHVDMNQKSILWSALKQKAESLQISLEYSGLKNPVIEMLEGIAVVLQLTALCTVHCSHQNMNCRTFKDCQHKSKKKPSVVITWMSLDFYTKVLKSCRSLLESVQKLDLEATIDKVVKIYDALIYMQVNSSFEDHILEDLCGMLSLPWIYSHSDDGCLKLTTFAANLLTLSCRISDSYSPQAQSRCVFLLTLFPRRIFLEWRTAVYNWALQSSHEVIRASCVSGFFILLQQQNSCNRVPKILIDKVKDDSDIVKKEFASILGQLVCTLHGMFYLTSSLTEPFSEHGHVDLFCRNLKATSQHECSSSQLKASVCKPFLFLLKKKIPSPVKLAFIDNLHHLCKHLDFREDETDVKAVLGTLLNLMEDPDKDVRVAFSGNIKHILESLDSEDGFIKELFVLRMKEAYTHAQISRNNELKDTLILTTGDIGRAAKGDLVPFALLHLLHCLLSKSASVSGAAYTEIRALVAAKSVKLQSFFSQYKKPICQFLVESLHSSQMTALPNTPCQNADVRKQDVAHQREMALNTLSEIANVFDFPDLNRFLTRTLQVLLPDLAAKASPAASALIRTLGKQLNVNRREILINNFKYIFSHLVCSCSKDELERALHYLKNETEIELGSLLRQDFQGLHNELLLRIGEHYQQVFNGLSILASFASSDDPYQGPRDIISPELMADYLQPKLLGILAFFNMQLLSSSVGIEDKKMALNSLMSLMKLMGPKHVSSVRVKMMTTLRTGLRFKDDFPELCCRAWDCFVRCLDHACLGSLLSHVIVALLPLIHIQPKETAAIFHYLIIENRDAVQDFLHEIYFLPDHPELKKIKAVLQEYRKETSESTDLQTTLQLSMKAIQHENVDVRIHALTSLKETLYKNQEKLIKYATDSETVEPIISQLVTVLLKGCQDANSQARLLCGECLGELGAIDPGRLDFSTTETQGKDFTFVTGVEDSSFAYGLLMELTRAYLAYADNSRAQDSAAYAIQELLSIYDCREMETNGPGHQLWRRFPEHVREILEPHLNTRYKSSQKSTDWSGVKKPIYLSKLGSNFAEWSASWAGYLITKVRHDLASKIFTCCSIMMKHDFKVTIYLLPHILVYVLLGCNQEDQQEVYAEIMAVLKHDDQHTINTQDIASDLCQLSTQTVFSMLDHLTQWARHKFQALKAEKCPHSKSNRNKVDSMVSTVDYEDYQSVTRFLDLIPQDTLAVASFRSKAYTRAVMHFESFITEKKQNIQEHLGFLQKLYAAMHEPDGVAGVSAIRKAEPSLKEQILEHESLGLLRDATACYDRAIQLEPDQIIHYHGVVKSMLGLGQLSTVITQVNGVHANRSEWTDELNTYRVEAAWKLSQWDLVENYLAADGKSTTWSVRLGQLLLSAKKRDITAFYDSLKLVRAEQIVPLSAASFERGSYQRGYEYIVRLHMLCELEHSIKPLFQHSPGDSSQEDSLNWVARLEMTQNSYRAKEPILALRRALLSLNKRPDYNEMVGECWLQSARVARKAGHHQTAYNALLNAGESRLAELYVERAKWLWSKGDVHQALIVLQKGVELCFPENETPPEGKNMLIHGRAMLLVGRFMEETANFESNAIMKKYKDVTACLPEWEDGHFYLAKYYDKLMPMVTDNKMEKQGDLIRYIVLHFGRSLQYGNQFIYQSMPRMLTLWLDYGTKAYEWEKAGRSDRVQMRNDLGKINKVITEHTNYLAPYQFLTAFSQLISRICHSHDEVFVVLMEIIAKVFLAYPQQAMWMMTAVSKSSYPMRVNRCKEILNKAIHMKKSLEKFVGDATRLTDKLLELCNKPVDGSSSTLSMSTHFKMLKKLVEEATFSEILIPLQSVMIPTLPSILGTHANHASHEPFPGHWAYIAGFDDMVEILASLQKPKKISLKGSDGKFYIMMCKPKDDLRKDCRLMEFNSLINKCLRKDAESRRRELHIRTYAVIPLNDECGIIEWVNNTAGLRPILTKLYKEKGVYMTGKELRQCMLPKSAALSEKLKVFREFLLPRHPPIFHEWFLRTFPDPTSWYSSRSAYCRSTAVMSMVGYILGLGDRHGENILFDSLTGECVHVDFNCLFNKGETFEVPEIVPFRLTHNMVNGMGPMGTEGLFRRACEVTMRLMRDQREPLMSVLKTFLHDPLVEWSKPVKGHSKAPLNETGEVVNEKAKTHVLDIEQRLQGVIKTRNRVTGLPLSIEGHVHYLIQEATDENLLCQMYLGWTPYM
T1 sequence (Q13535 whole entry): as above
T1 sequence (Q8WXE1 whole entry partner): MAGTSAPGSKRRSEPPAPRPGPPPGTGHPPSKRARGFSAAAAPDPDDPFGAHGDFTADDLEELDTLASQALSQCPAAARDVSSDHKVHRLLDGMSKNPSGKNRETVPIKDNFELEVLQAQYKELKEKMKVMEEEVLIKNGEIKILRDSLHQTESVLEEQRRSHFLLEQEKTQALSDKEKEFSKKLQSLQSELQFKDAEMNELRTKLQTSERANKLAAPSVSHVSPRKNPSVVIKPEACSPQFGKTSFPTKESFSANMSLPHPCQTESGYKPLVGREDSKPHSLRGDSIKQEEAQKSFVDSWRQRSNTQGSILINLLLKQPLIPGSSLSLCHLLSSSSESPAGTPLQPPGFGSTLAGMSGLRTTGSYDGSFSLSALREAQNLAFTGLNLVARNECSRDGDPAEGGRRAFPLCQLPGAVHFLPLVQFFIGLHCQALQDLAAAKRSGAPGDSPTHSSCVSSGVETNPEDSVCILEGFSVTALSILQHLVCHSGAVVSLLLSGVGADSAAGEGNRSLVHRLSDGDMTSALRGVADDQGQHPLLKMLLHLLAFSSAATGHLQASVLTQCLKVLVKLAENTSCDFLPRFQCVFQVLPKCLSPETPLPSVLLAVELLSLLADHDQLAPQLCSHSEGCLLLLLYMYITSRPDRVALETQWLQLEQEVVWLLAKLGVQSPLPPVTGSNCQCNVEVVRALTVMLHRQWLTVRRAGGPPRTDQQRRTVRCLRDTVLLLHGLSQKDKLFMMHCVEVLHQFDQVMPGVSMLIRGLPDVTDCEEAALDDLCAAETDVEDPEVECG

Consider `CC(C)S(=O)(=O)c1ccc(-c2cnc(N)c(-c3cc(-c4ccc(CNCC5COC5)cc4)no3)n2)cc1` [I, 5-(4-(isopropylsulfonyl)phenyl)-3-(3-(4-((oxetan-3-ylmethylamino)methyl)phenyl)isoxazol-5-yl)pyrazin-2-amine], for which the figures for the IC50 (in series [1]; against intracellular ATR) were 62 nM and 16 nM, respectively. Also, the clearance (commonly the volume of plasma or blood freed of the substance per unit of time) in series [2] (blood or plasma samples) was 6 mL/min/kg. The Vd in series [2] (steady state volume of distribution, read-out: Vss) is 0.9 L/kg. Moreover, in series [3], the Cisplatin sensitization came out at 39 nM. The Ki at full-length ATR worked out at 0.21 nM.

The values above are taken from patent US8853217B2, “Compounds useful as inhibitors of ATR kinase” (Vertex Pharmaceuticals Incorporated, priority 2011, dated 2014).
